The text below walks through data of the NIST ThermoML archive (doi:10.1016/j.jct.2016.07.001).

± gives the expanded uncertainty stated by the source.

Data set [1] in a line: Molar enthalpy of transition or fusion. The conditions noted are these: Crystal; DSC.
The conditions of data set [2]: Crystal; DTA.

As for `O=S(=O)(c1ccc(O)cc1)c1ccccc1O` [2,4'-dihydroxydiphenyl sulfone], in data set [1], the “Molar enthalpy of transition or fusion” value came to 10.2 ± 0.263 kcal/mol. Besides, in data set [2], the Normal melting temperature was 182.20 ± 1.1 °C.
